Laboratory results from patent US11345702B1 (Myoforte Therapeutics, Inc., priority 2020, dated 2022).
Values after ≈ are worked out from the molar mass of the structure shown. Read-outs that look alike come from different tables or passages of the source.

How the values were obtained:
15-PGDH/HPGD = 15-PGDH/HPGD (Homo sapiens (Human), UniProt P15428); test: hPGDH inhibitor screening biochemical assay
How it was run: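 Recombinant human 15-PGDH (10 nM) pre-incubated with compounds 10 min at 37 °C, then 15 μM PGE2 and 0.25 mM NAD+ added for 10 min at room temperature in 50 mM Tris-HCl pH 7.5, 0.01% Tween 20. NADH fluorescence read at ex/em 340/485 nm. IC50 from 10-point curves, four-parameter fit versus 1% DMSO.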

[1] = Liver microsome stability assay (MLM); format: in vitro ADME; details: mouse liver microsomes
How it was run: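 Mouse, rat or human liver microsomes (mixture at 1.428 mg/mL) in potassium phosphate buffer, 37 °C, incubated with compound after NADPH addition; minus-NADPH controls included. Parent loss by LC-MS/MS (MRM) with internal standard; value is % remaining at 45 min with NADPH.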

Solubility at pH 7.4 = format: physicochemical
[2] = Liver microsome stability assay (HLM); format: in vitro ADME; details: human liver microsomes
Method: (§1) A microsomal mixture (microsomes and Kphos buffer) was prepared at a concentration of 1.428 mg/mL in 2 mL tubes. To this microsomal mixture 1.6 μL (1 mM) of test compound and positive control were spiked; from this mixture, 70 μL was transferred to 96 well plate and pre-incubated at 37° C. for 5 min. After pre-incubation, the zero minute time point reaction was stopped using 100 μL of ice-cold acetonitrile containing internal standard and […] (3.33 mM in Kphos buffer) was added. The 45 minute time point reaction was initiated by addition of 30 μL of NADPH (3.33 mM in Kphos buffer) and incubated at 37° C. for 15 and 45 min. Reactions without NADPH and buffer controls (minus NADPH) at 0, 15, and 45 minutes were also incubated to rule out non-NADPH metabolism or chemical instability in the incubation buffer. Incubation reactions were stopped with 100 μL of ice-cold acetonitrile containing internal standard. The plates were centrifuged at 4000 RPM for 15 min and 100 μL aliquots were submitted for analysis by LC-MS/MS. (Verapamil in human liver microsomes (HLM) and rat liver microsomes (RLM) was used as positive controls. Imipramine in mouse liver microsomes (MLM) was used as a positive control.) Samples were monitored for parent compound disappearance in MRM mode (multiple reaction monitoring) using LC-MS/MS. The peak area ratios of analyte versus internal standard were used to calculate the % remaining at the end of 45 minutes in the presence of NADPH.

[3] = Liver microsome stability assay (RLM); format: in vitro ADME; details: rat liver microsomes
Method: as §1

[4] = pH 7.4, aqueous buffer, read-out: Solubility: Solubility at pH 7.4
[5] = aqueous buffer, pH 7.4, 6-5 ring core, read-out: Solubility at pH 7.4
[6] = aqueous buffer, pH 7.4, phenyl core, read-out: Solubility at pH 7.4

15-PGDH/HPGD, sequence (P15428 whole entry): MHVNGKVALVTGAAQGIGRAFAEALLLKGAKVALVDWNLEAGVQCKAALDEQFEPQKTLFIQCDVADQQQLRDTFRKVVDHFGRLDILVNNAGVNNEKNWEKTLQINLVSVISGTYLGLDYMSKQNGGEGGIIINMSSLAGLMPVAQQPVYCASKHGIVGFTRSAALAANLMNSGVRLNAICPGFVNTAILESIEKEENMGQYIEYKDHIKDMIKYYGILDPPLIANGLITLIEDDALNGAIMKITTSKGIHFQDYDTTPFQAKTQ

Compound: O=C(c1cnc2c(ccn2-c2cncc(-c3nnn[nH]3)c2)c1)N1CCC(F)(F)CC1 [MF-DH-453, (1-(5-(1H-tetrazol-5-yl)pyridin-3-yl)-1H-pyrrolo[2,3-b]pyridin-5-yl)(4,4-difluoropiperidin-1-yl)methanone]
- IC50 (15-PGDH/HPGD; read-out: hPGDH: Average IC50): < 100 nM
- MLM + NADPH (% remaining at 45 min) [1]: 116%
- solubility (Solubility at pH 7.4; [4]): > 100 µM

Compound: O=C(c1cnc2c(c1)c(Cl)cn2-c1cnccn1)N1CCC(F)CC1 [MF-DH-124]
- HLM + NADPH (% remaining at 45 min) [2]: 48%
- RLM + NADPH (% remaining at 45 min) [3]: 34%
- IC50 (15-PGDH/HPGD; read-out: hPGDH: Average IC50): < 100 nM

Compound: O=C(Nc1cncc(-n2ccc3cc(C(=O)N4CCC(F)(F)CC4)cnc32)c1)c1ccno1 [MF-DH-458]
- IC50 (15-PGDH/HPGD; read-out: hPGDH: Average IC50): < 100 nM
- MLM + NADPH (% remaining at 45 min) [1]: 68%
- solubility (Solubility at pH 7.4; [4]): 62 µM (≈ 28.1 µg/mL)

Compound: O=C(c1ccc2c(cnn2-c2cncc(Cl)c2)c1)N1CCCCC1 [MF-DH-292]
- RLM + NADPH (% remaining at 45 min) [3]: 27%
- IC50 (15-PGDH/HPGD; read-out: hPGDH: Average IC50): < 100 nM
- solubility (Solubility at pH 7.4; [4]): 69 µM (≈ 23.5 µg/mL)

Compound: COc1ccc(Cn2ncc3cc(-n4ccc5cc(C(=O)N6CCCCC6)cnc54)ccc32)cc1 [MF-DH-337]
- RLM + NADPH (% remaining at 45 min) [3]: 1%
- IC50 (15-PGDH/HPGD; read-out: hPGDH: Average IC50): < 100 nM
- solubility (Solubility at pH 7.4; [4]): < 5 µM

Compound: O=C(O)c1ccc(-n2ccc3cc(C(=O)N4CCC(F)(F)CC4)cnc32)cc1 [MF-DH-424, 4-(5-(4,4-difluoropiperidine-1-carbonyl)-1H-pyrrolo[2,3-b]pyridin-1-yl)benzoic acid]
- IC50 (15-PGDH/HPGD; read-out: hPGDH: Average IC50): < 100 nM
- MLM + NADPH (% remaining at 45 min) [1]: 96%
- solubility (Solubility at pH 7.4; [4]): 156 µM (≈ 60.1 µg/mL)

Compound: COc1ccc(-n2cnc3cc(C(=O)N4CCC(F)(F)CC4)cnc32)cc1 [MF-PGDH-079]
- HLM + NADPH (% remaining at 45 min) [2]: 100%
- RLM + NADPH (% remaining at 45 min) [3]: 87%
- IC50 (15-PGDH/HPGD; read-out: hPGDH: Average IC50): < 100 nM
- Solubility: Solubility at pH 7.4 (μM) (Solubility at pH 7.4; pH 7.4): 140 μM

Compound: Cc1c(C(=O)N2CCC(F)CC2)cnc2c1ccn2-c1ccc(C(N)=O)cc1 [MF-DH-380, 4-(5-(4-fluoropiperidine-1-carbonyl)-4-methyl-1H-pyrrolo[2,3-b]pyridin-1-yl)benzamide]
- IC50 (15-PGDH/HPGD; read-out: hPGDH: Average IC50): < 100 nM
- MLM + NADPH (% remaining at 45 min) [1]: 89%
- solubility (Solubility at pH 7.4; [4]): 75 µM (≈ 28.5 µg/mL)

Compound: O=C(c1cnc2c(ccn2-c2cncc(-c3noc(=O)[nH]3)c2)c1)N1CCC(F)(F)CC1 [MF-DH-454, 3-(5-(5-(4,4-difluoropiperidine-1-carbonyl)-1H-pyrrolo[2,3-b]pyridin-1-yl)pyridin-3-yl)-1,2,4-oxadiazol-5(4H)-one]
- IC50 (15-PGDH/HPGD; read-out: hPGDH: Average IC50): < 100 nM
- MLM + NADPH (% remaining at 45 min) [1]: 92%
- solubility (Solubility at pH 7.4; [4]): > 100 µM

Compound: COc1ccc(-n2cnc3cc(C(=O)N4CCCCC4)cnc32)cc1 [MF-PGDH-077]
- HLM + NADPH (% remaining at 45 min) [2]: 97%
- RLM + NADPH (% remaining at 45 min) [3]: 84%
- IC50 (15-PGDH/HPGD; read-out: hPGDH: Average IC50): < 100 nM
- Solubility: Solubility at pH 7.4 (μM) (Solubility at pH 7.4; pH 7.4): 160 μM

Compound: Cc1ncc(-n2cc(Cl)c3cc(C(=O)N4CCC(F)CC4)cnc32)cn1 [MF-DH-169, (3-chloro-1-(2-methylpyrimidin-5-yl)-1H-pyrrolo[2,3-b]pyridin-5-yl)(4-fluoropiperidin-1-yl)methanone]
- HLM + NADPH (% remaining at 45 min) [2]: 71%
- RLM + NADPH (% remaining at 45 min) [3]: 69%
- IC50 (15-PGDH/HPGD; read-out: hPGDH: Average IC50): < 100 nM

Compound: COc1ccc(-n2c(CC#N)nc3cc(C(=O)N4CCC(F)CC4)cnc32)cc1 [MF-DH-130]
- HLM + NADPH (% remaining at 45 min) [2]: 68%
- RLM + NADPH (% remaining at 45 min) [3]: 74%
- IC50 (15-PGDH/HPGD; read-out: hPGDH: Average IC50): 100 to 1000 nM

Compound: O=C(c1cnc2c(c1)ncn2-c1cccc(Cl)c1)N1CCCCC1 [MF-PGDH-020]
- HLM + NADPH (% remaining at 45 min) [2]: 87%
- RLM + NADPH (% remaining at 45 min) [3]: 23%
- IC50 (15-PGDH/HPGD; read-out: hPGDH: Average IC50): < 100 nM
- MLM + NADPH (% remaining at 45 min) [1]: 30%
- Solubility: Solubility at pH 7.4 (μM) (Solubility at pH 7.4; pH 7.4): 150 μM

Compound: O=C(c1ccc2c(c1)ncn2-c1cccc(Cl)c1)N1CC2(CCC2)C1 [drawing 212]
- solubility (Solubility at pH 7.4; [5]): 16 µM (≈ 5.63 µg/mL)

Compound: O=C(c1ccc(COc2ccccc2Cl)cc1)N1CCCCC1 [drawing 230]
- solubility (Solubility at pH 7.4; [6]): 38 µM (≈ 12.5 µg/mL)

Compound: O=C(c1ccc2c(c1)nnn2-c1cccc(Cl)c1)N1CCCCC1 [drawing 221]
- solubility (Solubility at pH 7.4; [5]): 68 µM (≈ 23.2 µg/mL)

Compound: COc1ccc(-n2cnc3cc(C(=O)N4CCC(F)CC4)cnc32)cc1 [MF-PGDH-078]
- HLM + NADPH (% remaining at 45 min) [2]: 96%
- RLM + NADPH (% remaining at 45 min) [3]: 89%
- IC50 (15-PGDH/HPGD; read-out: hPGDH: Average IC50): < 100 nM
- Solubility: Solubility at pH 7.4 (μM) (Solubility at pH 7.4; pH 7.4): 140 μM

Compound: O=C(c1ccc2c(c1)ncn2-c1cccc(Cl)c1)N1CC2CCCC2C1 (centres unmarked) [drawing 215]
- solubility (Solubility at pH 7.4; [5]): 33 µM (≈ 12.1 µg/mL)

Compound: O=C(c1ccc2c(ccn2-c2cccc(Cl)c2)c1)N1CCCCC1 [drawing 225]
- solubility (Solubility at pH 7.4; [5]): < 5 µM

Compound: CC(C)NC(=O)c1ccc(-n2ccc3cc(C(=O)N4CCC(F)(F)CC4)cnc32)cc1 [MF-DH-404]
- IC50 (15-PGDH/HPGD; read-out: hPGDH: Average IC50): < 100 nM
- MLM + NADPH (% remaining at 45 min) [1]: 101%
- solubility (Solubility at pH 7.4; [4]): < 5 µM

Compound: COc1ccc(-n2cnc3cc(C(=O)N4CCC(F)(F)CC4)cnc32)cc1 [drawing 191]
- solubility (Solubility at pH 7.4; [5]): 140 µM (≈ 52.1 µg/mL)

Compound: Cc1cncc(-n2cc(Cl)c3cc(C(=O)N4CCC(F)CC4)cnc32)n1 [MF-DH-166, (3-chloro-1-(6-methylpyrazin-2-yl)-1H-pyrrolo[2,3-b]pyridin-5-yl)(4-fluoropiperidin-1-yl)methanone]
- HLM + NADPH (% remaining at 45 min) [2]: 47%
- RLM + NADPH (% remaining at 45 min) [3]: 33%
- IC50 (15-PGDH/HPGD; read-out: hPGDH: Average IC50): < 100 nM

Compound: COc1ccc(-n2cnc3cc(C(=O)N4CCC(F)CC4)ccc32)cc1 [drawing 222]
- solubility (Solubility at pH 7.4; [5]): 160 µM (≈ 56.5 µg/mL)

Compound: O=C(c1ccc(COc2ccccc2Br)cc1)N1CCCCC1 [drawing 233]
- solubility (Solubility at pH 7.4; [6]): 6.3 µM (≈ 2.36 µg/mL)

Compound: O=C(c1cnc2c(-c3cccc(Cl)c3)cnn2c1)N1CCCCC1 [drawing 220]
- solubility (Solubility at pH 7.4; [5]): < 5 µM

Compound: O=C(c1cnc2c(ccn2-c2cccc(Cl)c2)c1)N1CCCCC1 [drawing 216]
- IC50 (15-PGDH/HPGD; PGDH inhibitors with a 6-5 ring core, read-out: hPGDH: IC50): 1.5 nM
- solubility (Solubility at pH 7.4; [5]): 21 µM (≈ 7.14 µg/mL)

Compound: COc1ccc(-n2cnc3cc(C(=O)N4CCCCC4)ccc32)cc1 [drawing 223]
- solubility (Solubility at pH 7.4; [5]): 150 µM (≈ 50.3 µg/mL)

Compound: O=C(c1cnc2c(ccn2-c2ccc3c(c2)OCO3)c1)N1CCC(F)CC1 [MF-DH-175]
- HLM + NADPH (% remaining at 45 min) [2]: 117%
- RLM + NADPH (% remaining at 45 min) [3]: 45%
- IC50 (15-PGDH/HPGD; read-out: hPGDH: Average IC50): < 100 nM

Compound: O=C(c1ccc2c(cnn2-c2cccc(Cl)c2)c1)N1CCCCC1 [drawing 224]
- solubility (Solubility at pH 7.4; [5]): 6.9 µM (≈ 2.34 µg/mL)

Compound: O=C(c1ccc2c(c1)ncn2-c1cccc(Cl)c1)N1CCCCC1 [drawing 211]
- solubility (Solubility at pH 7.4; [5]): 120 µM (≈ 40.8 µg/mL)

Compound: COc1ccc(-n2cnc3cc(C(=O)N4CCCCC4)cnc32)cc1 [drawing 193]
- solubility (Solubility at pH 7.4; [5]): 160 µM (≈ 53.8 µg/mL)

Compound: C[C@@H]1C[C@H](C)CN(C(=O)c2cnc3c(ccn3-c3ccc(C(N)=O)cc3)c2)C1 [MF-DH-395, 4-(5-((3R,5S)-3,5-dimethylpiperidine-1-carbonyl)-1H-pyrrolo[2,3-b]pyridin-1-yl)benzamide]
- IC50 (15-PGDH/HPGD; read-out: hPGDH: Average IC50): < 100 nM
- MLM + NADPH (% remaining at 45 min) [1]: 8%
- solubility (Solubility at pH 7.4; [4]): 80 µM (≈ 30.1 µg/mL)
